# Laboratory results: patent US12030875B2, “EIF4E inhibitors and uses thereof” (PIC Therapeutics, Inc., priority 2018, dated 2024)
# Target: T1, Human eIF4E (Homo sapiens, UniProt P06730)
# T1 construct: Human eIF4E (aa 28-217) with a C-terminal His-tag; made in house
# Assay: Human eIF4E/4G2 binding assay (TR-FRET)
# Details: eIF4E (aa 28-217) with biotin labeled 4G2 peptide
# Experimental: Human eIF4E (aa 28-217) with a C-terminal His-tag was expressed in E. coli in inclusion bodies. The protein was solubilized with 8 M urea and purified under denaturing conditions using nickel-charged HisTrap HP columns (GE Healthcare). The purified protein was then refolded by diluting in 20 mM Hepes pH 7.0, 0.5 M NaCl, 1 mM DTT, 1 mM EDTA, 0.5 M arginine plus 6 M urea, and then dialyzing overnight into the same buffer without the urea. The protein was further dialyzed into 20 mM Hepes, pH 6.5, 50 mM NaCl, 1 mM EDTA, 1 mM DTT, and concentrated using Hitrap SP sepharose FF columns (GE Healthcare). The concentrated protein was dialyzed into 20 mM Hepes, pH 7.0, 0.5M NaCl, 5 mM DTT and 10% glycerol, and stored at −80° C. until use.
# Test compounds (3.43 mM stock in DMSO) were diluted 2-fold in series in DMSO (10 concentration points). Compound solutions (1.2 μl/well) were added into black 384-well polypropylene microplates (Matrix, Thermal Scientific). Twenty-two microliters per well of Assay Buffer (50 mM NaPi, pH 6.5, 50 mM KCl, 1 mM DTT and 0.5 mg/ml gamma globulin) and eight microliters per well of 82.5 nM purified eIF4E in Assay Buffer were added. The samples were incubated at room temperature (20-23° C.) for 15 min. Biotin labeled 4G2 peptide (Ac-Lys-Gln-Tyr-Asp-Arg-Glu-Phe-Leu-Leu-Asp-Phe-Gln-Phe-Met-Pro-Lys(Aha-Bio)-NH2, 1.75 μM stock in DMSO) was diluted to 0.14 μM in Assay Buffer (without DTT) and 5 μl/well was added. The samples were incubated at room temperature for 15 min. Five microliters per well of 6.4 nM Eu-streptavidin (Eu-SA, Perkin Elmer) and 80 nM Allophycocyanin (APC)-anti His antibody (Columbia Biosciences) in Assay Buffer (without DTT) were then added and the samples were incubated at room temperature for 20 min.
# Assay signals were monitored by reading excitation at 340 nm and emission fluorescence at 615 nm and 665 nm on an Envision reader (Perkin Elmer). Normalized TR-FRET (time-resolved fluorescence resonance energy transfer) assay signal (Rn) was calculated by the formula: Rn═[(A−Ba−C×D)/(D−Bd)]×(Dc−Bd) • Where A is the fluorescence intensity of the sample at 665 nm, • D is the fluorescence intensity of the sample at 615 nm, • Ba and Bd are plate backgrounds at 665 nm and 615 nm, respectively, • Dc is the fluorescence intensity of 0.78 nM Eu-SA in the assay buffer at 615 nm • The cross-talk factor (C) is determined by the following formula: C=(Ac−Ba)/(Dc−Bd) • Where Ac is the fluorescence intensity of 0.78 nM Eu-SA in the assay buffer at 665 nm.
# IC50 values were calculated using xLFit program (IDBS).
# T1 sequence (P06730 28-217): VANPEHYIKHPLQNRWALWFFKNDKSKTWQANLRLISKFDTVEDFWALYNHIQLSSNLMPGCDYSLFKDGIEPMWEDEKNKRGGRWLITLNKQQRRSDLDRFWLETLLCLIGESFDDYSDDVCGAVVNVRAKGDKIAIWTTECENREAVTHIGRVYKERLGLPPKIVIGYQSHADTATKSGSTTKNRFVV
row,IC50,SMILES
1,5 to 25 µM,CC(CC(=O)O)Nc1nc(-c2ccc(-c3ccc(F)cc3)cc2)c(-c2ccccc2)s1 (stereo not shown) [Compound I-95]
2,5 to 25 µM,CCCC(CNc1nc(-c2ccc(-c3cnco3)cc2)c(-c2ccccc2)s1)C(=O)O (stereo not shown) [Compound I-18]
3,> 25 µM,O=C(O)C1CCCN(c2nc(-c3ccc(-c4cnco4)cc3)c(-c3cccnc3)s2)C1 (stereo not shown) [Compound I-33]
4,< 5 µM,CC(C)(CNc1nc(-c2ccc(-c3ccc(F)cc3)cc2)c(-c2ccccc2)s1)C(=O)O [Compound I-72]
5,> 25 µM,O=C(O)C1CN(c2nc(-c3ccc(-c4cnco4)cc3)c(-c3cccnc3)s2)CCO1 (stereo not shown) [Compound I-58]
6,5 to 25 µM,CC(CNc1nc(-c2ccc(-c3ccc(F)cc3)cc2)c(-c2cccc3[nH]ccc23)s1)C(=O)O (stereo not shown) [Compound I-104]
7,> 25 µM,O=C(O)C1CCN(c2nc(-c3ccc(Oc4ccccc4)cc3)c(-c3cncnc3)s2)CC1 [Compound I-210]
8,< 5 µM,O=C(O)CC1CCCN1c1nc(-c2ccc(-c3ccc(F)cc3)cc2)c(-c2cccc3[nH]ccc23)s1 (stereo not shown) [Compound I-114]
9,> 25 µM,O=C(O)C1CC(CNc2nc(-c3ccc(Oc4ccccc4)cc3)cs2)C1 (stereo not shown) [Compound I-200]
10,> 25 µM,O=C(O)C1CN(c2nc(-c3ccc(Oc4ccccc4)cc3)c(-c3cncnc3)s2)C1 [Compound I-159]
11,5 to 25 µM,O=C(O)C1CCN(c2nc(-c3ccc(-c4ccc(F)cc4)cc3)c(-c3cccc4[nH]ccc34)s2)CC1 [Compound I-139]
12,5 to 25 µM,CC(CNc1nc(-c2ccc(-c3ccc(F)cc3)cc2)c(-c2ccccc2)s1)C(=O)O (stereo not shown) [Compound I-101]
13,< 5 µM,O=C(O)C1CCCN(c2nc(-c3ccc(Oc4ccccc4)cc3)c(-c3ccccc3)s2)C1 (stereo not shown) [Compound I-182]
14,> 25 µM,CC1(C(=O)O)CN(c2nc(-c3ccc(-c4ccc(F)cc4)nc3)c(-c3cncnc3)s2)C1 [Compound I-84]
15,> 25 µM,CC1(C(=O)O)CCCN(c2nc(-c3ccc(-c4ccc(F)cc4)cc3)c(-c3cncnc3)s2)C1 (stereo not shown) [Compound I-145]
16,< 5 µM,CCCC(CNc1nc(-c2ccc(-c3ccc(F)cc3)cc2)c(-c2ccccc2)s1)C(=O)O (stereo not shown) [Compound I-89]
17,> 25 µM,O=C(O)C1CCCN(c2nc(-c3ccc(-c4cnco4)cc3)c(-c3ccccc3)s2)C1 (stereo not shown) [Compound I-31]
18,> 25 µM,CC(CNc1nc(-c2ccc(-c3cnco3)cc2)c(-c2cccnc2)s1)C(=O)O (stereo not shown) [Compound I-29]
19,> 25 µM,CCCC(CNc1nc(-c2ccc(-c3ccc(F)cc3)cc2)c(-c2cncnc2)s1)C(=O)O (stereo not shown) [Compound I-90]
20,> 25 µM,CC(C)C(CC(=O)O)Nc1nc(-c2ccc(-c3ccc(F)cc3)cc2)c(-c2cncnc2)s1 (stereo not shown) [Compound I-67]
21,> 25 µM,O=C(O)C1CCN(c2nc(-c3ccc(-c4cnco4)cc3)c(-c3cccc4[nH]ccc34)s2)C1 (stereo not shown) [Compound I-43]

row,IC50,SMILES
1,> 25 µM,O=C(O)C1CCCN(c2nc(-c3ccc(-c4ccc(F)cc4)cc3)c(-c3cncnc3)s2)C1 (stereo not shown) [Compound I-107]
2,> 25 µM,O=C(O)CC1CCCN1c1nc(-c2ccc(-c3cnco3)cc2)c(-c2cncnc2)s1 (stereo not shown) [Compound I-37]
3,> 25 µM,O=C(O)C1(CNc2nc(-c3ccc(-c4ccc(F)cc4)cc3)c(-c3cccnc3)s2)CC1 [Compound I-124]
4,> 25 µM,CC(C)(CNc1nc(-c2ccc(-c3cnco3)cc2)c(-c2cccnc2)s1)C(=O)O [Compound I-7]
5,> 25 µM,O=C(O)C1CC(CNc2nc(-c3ccc(Oc4ccccc4)cc3)c(-c3cncnc3)s2)C1 (stereo not shown) [Compound I-202]
6,< 5 µM,CC(C)C(CC(=O)O)Nc1nc(-c2ccc(-c3ccc(F)cc3)cc2)c(-c2ccccc2)s1 (stereo not shown) [Compound I-66]
7,5 to 25 µM,O=C(O)C1CCCN(c2nc(-c3ccc(-c4ccc(F)cc4)cc3)c(-c3cccnc3)s2)C1 (stereo not shown) [Compound I-108]
8,> 25 µM,O=C(O)C1(CNc2nc(-c3ccc(-c4ccc(F)cc4)cc3)cs2)CC1 [Compound I-120]
9,> 25 µM,O=C(O)C1CCN(c2nc(-c3ccc(-c4cnco4)cc3)c(-c3cncnc3)s2)CC1 [Compound I-53]
10,> 25 µM,O=C(O)C1CCN(c2nc(-c3ccc(-c4ccc(F)cc4)cc3)c(-c3cccnc3)s2)C1 (stereo not shown) [Compound I-118]
11,< 5 µM,CC(CNc1nc(-c2ccc(-c3ccc(F)cc3)cc2)c(C(F)(F)F)s1)C(=O)O (stereo not shown) [Compound I-229]
12,5 to 25 µM,CC(CNc1nc(-c2ccc(Oc3ccccc3)cc2)c(-c2ccccc2)s1)C(=O)O (stereo not shown) [Compound I-177]
13,> 25 µM,O=C(O)C1CN(c2nc(-c3ccc(-c4cnco4)cc3)c(-c3ccccc3)s2)C1 [Compound I-9]
14,5 to 25 µM,CC(CC(=O)O)Nc1nc(-c2ccc(Oc3ccccc3)cc2)c(-c2ccccc2)s1 (stereo not shown) [Compound I-172]
15,> 25 µM,CC(C)C(CC(=O)O)Nc1nc(-c2ccc(Oc3ccccc3)cc2)cs1 (stereo not shown) [Compound I-148]
16,> 25 µM,CC(CNc1nc(-c2ccc(-c3cnco3)cc2)c(-c2cccc3[nH]ccc23)s1)C(=O)O (stereo not shown) [Compound I-30]
17,< 5 µM,O=C(O)CC1CCCN1c1nc(-c2ccc(Oc3ccccc3)cc2)c(-c2ccccc2)s1 (stereo not shown) [Compound I-186]
18,> 25 µM,CC1(C(=O)O)CCCN(c2nc(-c3ccc(-c4cnco4)cc3)c(-c3ccccc3)s2)C1 (stereo not shown) [Compound I-60]
19,5 to 25 µM,CC(C)(CNc1nc(-c2ccc(-c3ccc(F)cc3)cc2)c(-c2cccnc2)s1)C(=O)O [Compound I-74]
20,< 5 µM,O=C(O)[C@@H]1CCCN(c2nc(-c3ccc(Oc4ccccc4)cc3)c(-c3ccccc3)s2)C1 [Compound I-227]
21,5 to 25 µM,CC(C)C(CC(=O)O)Nc1nc(-c2ccc(-c3ccc(F)cc3)cc2)cs1 (stereo not shown) [Compound I-64]

row,IC50,SMILES
1,< 5 µM,CCCC(CNc1nc(-c2ccc(Oc3ccccc3)cc2)c(-c2ccccc2)s1)C(=O)O (stereo not shown) [Compound I-168]
2,> 25 µM,CC(C)(CNc1nc(-c2ccc(Oc3ccccc3)cc2)c(-c2cncnc2)s1)C(=O)O [Compound I-155]
3,> 25 µM,O=C(O)CC1CCCN1c1nc(-c2ccc(-c3cnco3)cc2)c(-c2cccc3[nH]ccc23)s1 (stereo not shown) [Compound I-39]
4,> 25 µM,O=C(O)C1CN(c2nc(-c3ccc(-c4cnco4)cc3)c(-c3cccc4[nH]ccc34)s2)C1 [Compound I-12]
5,> 25 µM,O=C(O)C1CN(c2nc(-c3ccc(Oc4ccccc4)cc3)c(-c3cccc4[nH]ccc34)s2)CCO1 (stereo not shown) [Compound I-216]
6,< 5 µM,CC(C)(CNc1nc(-c2ccc(Oc3ccccc3)cc2)c(-c2ccccc2)s1)C(=O)O [Compound I-154]
7,> 25 µM,CC1(C(=O)O)CN(c2nc(-c3ccc(-c4ccc(F)cc4)cc3)cs2)C1 [Compound I-81]
8,> 25 µM,O=C(O)C1CCN(c2nc(-c3ccc(-c4cnco4)cc3)c(-c3ccccc3)s2)C1 (stereo not shown) [Compound I-40]
9,> 25 µM,CC1(C(=O)O)CCCN(c2nc(-c3ccc(-c4cnco4)cc3)c(-c3cncnc3)s2)C1 (stereo not shown) [Compound I-61]
10,> 25 µM,CC(C)(CNc1nc(-c2ccc(-c3ccc(F)cc3)cc2)c(-c2cncnc2)s1)C(=O)O [Compound I-73]
11,> 25 µM,O=C(O)C1CCN(c2nc(-c3ccc(Oc4ccccc4)cc3)c(-c3cccnc3)s2)CC1 [Compound I-211]
12,5 to 25 µM,O=C(O)C1CC(CNc2nc(-c3ccc(-c4ccc(F)cc4)cc3)c(-c3cccc4[nH]ccc34)s2)C1 (stereo not shown) [Compound I-131]
13,> 25 µM,O=C(O)C1CN(c2nc(-c3ccc(Oc4ccccc4)cc3)c(-c3cncnc3)s2)CCO1 (stereo not shown) [Compound I-214]
14,5 to 25 µM,O=C(O)C1CCN(c2nc(-c3ccc(Oc4ccccc4)cc3)c(-c3cccc4[nH]ccc34)s2)C1 (stereo not shown) [Compound I-194]
15,< 5 µM,O=C(O)C1(CNc2nc(-c3ccc(Oc4ccccc4)cc3)c(-c3ccccc3)s2)CC1 [Compound I-196]
16,< 5 µM,O=C(O)C1COCCN1c1nc(-c2ccc(-c3ccc(F)cc3)cc2)c(-c2ccccc2)s1 (stereo not shown) [Compound I-231]
17,> 25 µM,CC(CNc1nc(-c2ccc(Oc3ccccc3)cc2)c(-c2cccnc2)s1)C(=O)O (stereo not shown) [Compound I-179]
18,> 25 µM,O=C(O)C1CN(c2nc(-c3ccc(-c4cnco4)cc3)c(-c3cncnc3)s2)C1 [Compound I-10]
19,< 5 µM,O=C(O)C1(CNc2nc(-c3ccc(-c4ccc(F)cc4)cc3)c(-c3cccc4[nH]ccc34)s2)CC1 [Compound I-125]
